pEC50: −log10 of the molar value. Starred links: 1 amine or outer side, 2 acyl side, 3 side chain; linkers in the order of their positions; H or OH if unused. Non-standard residues stand in square brackets, D forms with d. Residues, ends and D or L forms follow the SMILES beside them. Groups on a side chain read outwards from the residue. *: point of attachment. C20 diacid = O=C(O)CCCCCCCCCCCCCCCCCCC(=O)*; C18 diacid = O=C(O)CCCCCCCCCCCCCCCCC(=O)*; γGlu = O=C(O)[C@H](CCC(=O)[*:2])N[*:1]; Palmitoyl = CCCCCCCCCCCCCCCC(=O)*; αMeF = C[C@](N)(Cc1ccccc1)C(=O)O; PEG2 = NCCOCCOCCC(=O)O; AEEA = NCCOCCOCC(=O)O; Aib = CC(C)(N)C(=O)O
What was measured:
neprilysin = molecular target: T1, neprilysin (Homo sapiens, UniProt P08473); experiment: Proteolytic resistance to neprilysin; type: in vitro ADME; conditions: pH 8.3
T1 construct: purchased R&D Systems 1182-ZNC-010
T1 sequence (P08473 whole entry): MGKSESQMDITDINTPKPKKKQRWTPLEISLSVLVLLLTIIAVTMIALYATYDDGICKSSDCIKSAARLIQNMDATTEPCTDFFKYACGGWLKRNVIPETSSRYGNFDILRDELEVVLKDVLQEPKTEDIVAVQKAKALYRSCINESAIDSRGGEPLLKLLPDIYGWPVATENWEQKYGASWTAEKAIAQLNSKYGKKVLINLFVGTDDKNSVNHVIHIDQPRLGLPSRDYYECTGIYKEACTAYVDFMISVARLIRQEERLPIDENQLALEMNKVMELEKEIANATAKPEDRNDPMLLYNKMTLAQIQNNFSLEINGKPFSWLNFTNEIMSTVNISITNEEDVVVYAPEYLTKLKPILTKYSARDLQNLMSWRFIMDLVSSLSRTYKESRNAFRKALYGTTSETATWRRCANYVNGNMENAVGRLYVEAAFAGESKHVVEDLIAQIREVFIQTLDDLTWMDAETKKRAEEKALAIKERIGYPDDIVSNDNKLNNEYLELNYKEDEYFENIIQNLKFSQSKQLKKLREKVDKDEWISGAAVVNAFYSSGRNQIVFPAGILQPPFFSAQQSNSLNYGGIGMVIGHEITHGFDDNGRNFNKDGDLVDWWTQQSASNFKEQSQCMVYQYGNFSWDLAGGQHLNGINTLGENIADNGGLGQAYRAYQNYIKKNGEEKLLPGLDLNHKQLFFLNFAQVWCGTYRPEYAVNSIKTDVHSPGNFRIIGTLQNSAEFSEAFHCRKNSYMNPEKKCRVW
Method: 10.0 μg (˜10 units) recombinant Neprilysin (R&D Systems: 1182-ZNC-010) was reconstituted to 100 μL (100 μg/mL, ˜100 units/mL) in assay buffer (50 mM Tris, 50 mM NaCl, 50 mM NaHCO3, adjusted to pH 8.3) to give the enzyme stock solution. Peptide stock solutions were prepared to a concentration of ˜250 μM (˜1.0 mg/mL of 4 kDa peptide) in assay buffer. 100 μL (10 μg, ˜10 units) of neprilysin stock solution was added to 100 μL of peptide stock solution (1.0 mg/mL, ˜100 μg of peptide) and the mixture was co-incubated in a temperature regulated incubator at 37° C. for the duration of the experiment. 25 μL aliquots (˜12.5 μg initial peptide) of the peptide-enzyme mixture were periodically withdrawn (t=0, 30 mins, 1 h, 2 h, 4 h and 24 h) and quenched immediately by addition to an equal volume ([…]) of 10% TFA (v/v) in 1:1 water/acetonitrile to arrest proteolytic activity. The quenched aliquot centrifuged at 7800 rpm, and 30 μL of the supernatant was analyzed by analytical RP-HPLC as follows: Analytical RP-HPLC method: Agilent Polaris C8-A column (4.6×100 mm, 3 micron) eluted with a linear binary gradient of 10-90% MeCN (0.1% TFA v/v) in water (0.1% TFA v/v) over either 10 or 15 mins at 1.5 mL min^−1 at 40° C. with detection by UV absorption at 210 nm. Manual integration (AUC) allowed estimation of remaining intact peptide over the time course of the experiment.

[1] = molecular target: T2, human glucagon receptor (hGCGR) (Homo sapiens, UniProt P47871); experiment: cAMP production (HTRF) in CHO cells expressing human glucagon receptor; type: cell-based; conditions: Table 10, peptides modified at position 13, geometric mean, CHO cells, read-out: hGluc-R EC50
T2 construct: expressed in transfected cells; host or cells: CHO
T2 sequence (P47871 26-477): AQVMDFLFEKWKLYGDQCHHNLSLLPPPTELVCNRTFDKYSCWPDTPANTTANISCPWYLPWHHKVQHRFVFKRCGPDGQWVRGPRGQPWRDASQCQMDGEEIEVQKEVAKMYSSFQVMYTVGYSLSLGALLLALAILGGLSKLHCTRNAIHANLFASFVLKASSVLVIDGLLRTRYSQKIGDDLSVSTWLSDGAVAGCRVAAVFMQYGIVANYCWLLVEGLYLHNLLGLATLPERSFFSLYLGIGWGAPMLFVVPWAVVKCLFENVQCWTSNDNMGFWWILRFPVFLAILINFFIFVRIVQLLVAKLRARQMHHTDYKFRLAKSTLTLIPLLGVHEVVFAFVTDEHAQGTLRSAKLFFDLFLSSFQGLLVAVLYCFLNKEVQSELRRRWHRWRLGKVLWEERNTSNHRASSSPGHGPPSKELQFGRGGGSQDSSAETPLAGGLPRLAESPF

[2] = molecular target: T3, human GLP-1 receptor (hGLP-1R) (Homo sapiens, UniProt P43220); experiment: cAMP production (HTRF) in CHO cells expressing human GLP-1 receptor; type: cell-based; conditions: for pEC50: Table 10, peptides modified at position 13, geometric mean, CHO cells, cAMP, read-out: hGLP-1R EC50; for % Relative Potency Ratio: Table 10, % GLP-1R activity relative to GLP-1 / % GlucR activity relative to glucagon
T3 construct: expressed in transfected cells; host or cells: CHO
T3 sequence (P43220 24-463): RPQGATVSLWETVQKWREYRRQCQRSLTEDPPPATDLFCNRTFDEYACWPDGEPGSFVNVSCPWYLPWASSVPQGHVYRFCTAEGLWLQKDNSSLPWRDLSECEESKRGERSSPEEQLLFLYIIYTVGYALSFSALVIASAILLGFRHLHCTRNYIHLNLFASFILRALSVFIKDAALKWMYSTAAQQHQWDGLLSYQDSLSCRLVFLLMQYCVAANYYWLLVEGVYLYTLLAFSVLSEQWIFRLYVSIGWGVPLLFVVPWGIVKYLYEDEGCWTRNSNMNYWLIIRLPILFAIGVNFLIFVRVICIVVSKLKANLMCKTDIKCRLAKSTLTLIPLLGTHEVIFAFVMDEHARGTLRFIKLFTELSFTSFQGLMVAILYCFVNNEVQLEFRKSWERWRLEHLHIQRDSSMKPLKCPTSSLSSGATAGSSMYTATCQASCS

Row | SMILES | % intact peptide over time, Neprilysin (neprilysin) | pEC50 [1] | pEC50 [2] | % Relative Potency Ratio [2]
1 | CC[C@H](C)[C@H](NC(=O)C(C)(C)NC(=O)[C@H](CCC(N)=O)NC(=O)[C@@H](NC(=O)[C@](C)(Cc1ccccc1)NC(=O)[C@H](CC(=O)O)NC(=O)[C@H](CCCCNC(=O)COCCOCCNC(=O)COCCOCCNC(=O)CC[C@H](NC(=O)CC[C@H](NC(=O)CCCCCCCCCCCCCCCCCCC(=O)O)C(=O)O)C(=O)O)NC(=O)[C@H](C)NC(=O)[C@H](C)NC(=O)[C@H](CCCNC(=N)N)NC(=O)[C@H](CO)NC(=O)[C@H](CC(=O)O)NC(=O)[C@H](CC(C)C)NC(=O)[C@](C)(Cc1ccccc1)NC(=O)[C@H](CCCCN)NC(=O)[C@H](CO)NC(=O)[C@@H](NC(=O)[C@H](CC(=O)O)NC(=O)[C@H](CO)NC(=O)[C@@H](NC(=O)[C@H](Cc1ccccc1)NC(=O)[C@H](CO)NC(=O)CNC(=O)[C@H](Cc1c[nH]cn1)NC(=O)C(C)(C)NC(=O)[C@@H](N)Cc1c[nH]cn1)[C@@H](C)O)C(C)C)C(C)C)C(=O)N[C@@H](C)C(=O)N[C@@H](CC(N)=O)C(=O)N[C@H](C(N)=O)[C@@H](C)O [Peptide 282] (H-H[Aib]HGSFTSDVSK[αMeF]LDSRAAK([AEEA-AEEA-γGlu-γGlu-C20 diacid])D[αMeF]VQ[Aib]IANT-NH2) | 100% | – | – | –
2 | CC[C@H](C)[C@H](NC(=O)C(C)(C)NC(=O)[C@H](CCC(=O)O)NC(=O)[C@@H](NC(=O)[C@](C)(Cc1ccccc1)NC(=O)[C@H](CC(=O)O)NC(=O)[C@H](CCCNC(=N)N)NC(=O)[C@H](C)NC(=O)[C@H](C)NC(=O)[C@H](CCCCNC(=O)COCCOCCNC(=O)COCCOCCNC(=O)CC[C@H](NC(=O)CCCCCCCCCCCCCCCCC(=O)O)C(=O)O)NC(=O)[C@H](CO)NC(=O)[C@H](CC(=O)O)NC(=O)[C@H](CC(C)C)NC(=O)[C@](C)(Cc1ccccc1)NC(=O)[C@H](CCCCN)NC(=O)[C@H](CO)NC(=O)[C@@H](NC(=O)[C@H](CC(=O)O)NC(=O)[C@H](CO)NC(=O)[C@@H](NC(=O)[C@](C)(Cc1ccccc1)NC(=O)[C@H](CO)NC(=O)CNC(=O)[C@H](Cc1c[nH]cn1)NC(=O)C(C)(C)NC(=O)[C@@H](N)Cc1c[nH]cn1)[C@@H](C)O)C(C)C)C(C)C)C(=O)N[C@@H](C)C(=O)N[C@@H](CC(N)=O)C(=O)N[C@H](C(N)=O)[C@@H](C)O [Peptide 15] (H-H[Aib]HGS[αMeF]TSDVSK[αMeF]LDSK([AEEA-AEEA-γGlu-C18 diacid])AARD[αMeF]VE[Aib]IANT-NH2; N-terminus assumed) | 100% | – | – | –
3 | CC[C@H](C)[C@H](NC(=O)C(C)(C)NC(=O)[C@H](CCC(N)=O)NC(=O)[C@@H](NC(=O)[C@](C)(Cc1ccccc1)NC(=O)[C@H](CC(=O)O)NC(=O)[C@H](CCCCNC(=O)COCCOCCNC(=O)COCCOCCNC(=O)CC[C@H](NC(=O)CC[C@H](NC(=O)CCCCCCCCCCCCCCCCCCC(=O)O)C(=O)O)C(=O)O)NC(=O)[C@H](C)NC(=O)[C@H](C)NC(=O)[C@H](CCCNC(=N)N)NC(=O)[C@H](CO)NC(=O)[C@H](CC(=O)O)NC(=O)[C@H](CC(C)C)NC(=O)[C@H](Cc1ccc(O)cc1)NC(=O)[C@H](CCCCN)NC(=O)[C@H](CO)NC(=O)[C@@H](NC(=O)[C@H](CC(=O)O)NC(=O)[C@H](CO)NC(=O)[C@@H](NC(=O)[C@](C)(Cc1ccccc1)NC(=O)[C@H](CO)NC(=O)CNC(=O)[C@H](Cc1c[nH]cn1)NC(=O)C(C)(C)NC(=O)[C@@H](N)Cc1c[nH]cn1)[C@@H](C)O)C(C)C)C(C)C)C(=O)N[C@@H](C)C(=O)N[C@@H](CC(N)=O)C(=O)N[C@H](C(N)=O)[C@@H](C)O [Peptide 283] (H-H[Aib]HGS[αMeF]TSDVSKYLDSRAAK([AEEA-AEEA-γGlu-γGlu-C20 diacid])D[αMeF]VQ[Aib]IANT-NH2) | 100% | – | – | –
4 | CCCCCCCCCCCCCCCCCC(=O)N[C@@H](CCC(=O)N[C@@H](CCC(=O)NCCOCCOCCC(=O)NCCOCCOCCC(=O)NCCCC[C@H](NC(=O)[C@H](CCCCN)NC(=O)[C@H](CO)NC(=O)[C@@H](NC(=O)[C@H](CC(=O)O)NC(=O)[C@H](CO)NC(=O)[C@@H](NC(=O)[C@](C)(Cc1ccccc1)NC(=O)[C@H](CO)NC(=O)CNC(=O)[C@H](CCC(N)=O)NC(=O)[C@H](CO)NC(=O)[C@@H](N)Cc1c[nH]cn1)[C@@H](C)O)C(C)C)C(=O)N[C@@H](CC(C)C)C(=O)N[C@@H](CC(=O)O)C(=O)N[C@@H](CO)C(=O)N[C@H](C(=O)N[C@@H](C)C(=O)N[C@@H](C)C(=O)N[C@@H](CCC(N)=O)C(=O)N[C@@H](CC(=O)O)C(=O)N[C@@](C)(Cc1ccccc1)C(=O)N[C@H](C(=O)N[C@@H](CCC(=O)O)C(=O)N[C@@H](Cc1c[nH]cn1)C(=O)N[C@@H](CC(C)C)C(=O)N[C@@H](C)C(=O)N[C@@H](CC(N)=O)C(=O)N[C@H](C(N)=O)[C@@H](C)O)C(C)C)C(C)(C)CCNC(=N)N)C(=O)O)C(=O)O [Peptide 404, HSQGS(αMePhe)TSDVSKK((PEG)2-(PEG)2-γE-γE-Stearoyl)13LDS(ß-dimethylArg)AAQD(αMePhe)VEHLANT-amide] | – | 10.66 | 11.25 | 7.6
5 | CC[C@H](C)[C@H](NC(=O)C(C)(C)NC(=O)[C@H](CCC(N)=O)NC(=O)[C@@H](NC(=O)[C@H](Cc1ccccc1)NC(=O)[C@H](CC(=O)O)NC(=O)[C@H](CCCCNC(=O)COCCOCCNC(=O)COCCOCCNC(=O)CC[C@H](NC(=O)CCCCCCCCCCCCCCCCC(=O)O)C(=O)O)NC(=O)[C@H](C)NC(=O)[C@H](C)NC(=O)[C@H](CCCNC(=N)N)NC(=O)[C@H](CO)NC(=O)[C@H](CC(=O)O)NC(=O)[C@H](CC(C)C)NC(=O)[C@](C)(Cc1ccccc1)NC(=O)[C@H](CCCCN)NC(=O)[C@H](CO)NC(=O)[C@@H](NC(=O)[C@H](CC(=O)O)NC(=O)[C@H](CO)NC(=O)[C@@H](NC(=O)[C@](C)(Cc1ccccc1)NC(=O)[C@H](CO)NC(=O)CNC(=O)[C@H](Cc1c[nH]cn1)NC(=O)C(C)(C)NC(=O)[C@@H](N)Cc1c[nH]cn1)[C@@H](C)O)C(C)C)C(C)C)C(=O)N[C@@H](C)C(=O)N[C@@H](CC(N)=O)C(=O)N[C@H](C(N)=O)[C@@H](C)O [Peptide 287] (H-H[Aib]HGS[αMeF]TSDVSK[αMeF]LDSRAAK([AEEA-AEEA-γGlu-C18 diacid])DFVQ[Aib]IANT-NH2) | 100% | – | – | –
6 | CCCCCCCCCCCCCCCC(=O)N[C@@H](CCC(=O)NCCOCCOCCC(=O)NCCOCCOCCC(=O)NCCCC[C@H](NC(=O)[C@H](CCCCN)NC(=O)[C@H](CO)NC(=O)[C@@H](NC(=O)[C@H](CC(=O)O)NC(=O)[C@H](CO)NC(=O)[C@@H](NC(=O)[C@](C)(Cc1ccccc1)NC(=O)[C@H](CO)NC(=O)CNC(=O)[C@H](CCC(N)=O)NC(=O)C(C)(C)NC(=O)[C@@H](N)Cc1c[nH]cn1)[C@@H](C)O)C(C)C)C(=O)N[C@@H](CC(C)C)C(=O)N[C@@H](CC(=O)O)C(=O)N[C@@H](CO)C(=O)N[C@@H](CCCNC(=N)N)C(=O)N[C@@H](C)C(=O)N[C@@H](C)C(=O)N[C@@H](CCC(N)=O)C(=O)N[C@@H](CC(=O)O)C(=O)N[C@@](C)(Cc1ccccc1)C(=O)N[C@H](C(=O)N[C@@H](CCC(=O)O)C(=O)N[C@@H](Cc1c[nH]c2ccccc12)C(=O)N[C@H](C(=O)N[C@@H](C)C(=O)N[C@@H](CC(N)=O)C(=O)N[C@H](C(N)=O)[C@@H](C)O)[C@@H](C)CC)C(C)C)C(=O)O [Peptide 401] (H-H[Aib]QGS[αMeF]TSDVSKK([PEG2-PEG2-γGlu-Palmitoyl])LDSRAAQD[αMeF]VEWIANT-NH2) | – | 11.02 | – | 32.3
7 | CC[C@H](C)[C@H](NC(=O)C(C)(C)NC(=O)[C@H](CCC(N)=O)NC(=O)[C@@H](NC(=O)[C@](C)(Cc1ccccc1)NC(=O)[C@H](CC(=O)O)NC(=O)[C@H](CCC(N)=O)NC(=O)[C@H](C)NC(=O)[C@H](C)NC(=O)[C@H](CCCNC(=N)N)NC(=O)[C@H](CO)NC(=O)[C@H](CC(=O)O)NC(=O)[C@H](CC(C)C)NC(=O)[C@H](CCCCNC(=O)COCCOCCNC(=O)COCCOCCNC(=O)CC[C@H](NC(=O)CC[C@H](NC(=O)CCCCCCCCCCCCCCCCCCC(=O)O)C(=O)O)C(=O)O)NC(=O)[C@H](CCCCN)NC(=O)[C@H](CO)NC(=O)[C@@H](NC(=O)[C@H](CC(=O)O)NC(=O)[C@H](CO)NC(=O)[C@@H](NC(=O)[C@](C)(Cc1ccccc1)NC(=O)[C@H](CO)NC(=O)CNC(=O)[C@H](Cc1c[nH]cn1)NC(=O)C(C)(C)NC(=O)[C@@H](N)Cc1c[nH]cn1)[C@@H](C)O)C(C)C)C(C)C)C(=O)N[C@@H](C)C(=O)N[C@@H](CC(N)=O)C(=O)N[C@H](C(N)=O)[C@@H](C)O [Peptide 405] (H-H[Aib]HGS[αMeF]TSDVSKK([AEEA-AEEA-γGlu-γGlu-C20 diacid])LDSRAAQD[αMeF]VQ[Aib]IANT-NH2) | – | 8.07 | 8.98 | 16.3
